# According to patent publication US20230117328A1, “METHODS TO TREAT CANCER USING (R)-N-(3-FLUORO-4-((3-((1-HYDROXYPROPAN-2-YL)AMINO)-1H-PYRAZOLO[3,4-B]PYRIDIN-4-YL)OXY)PHENYL)-3-(4-FLUOROPHENYL)-1-ISOPROPYL-2,4-DIOXO-1,2,3,4-TETRAHYDROPYRIMIDINE-5-CARBOXAMIDE” (Array BioPharma Inc., priority 2020, published 2023):
# “Also recorded” adds a separate entry of the source.
# What was measured:
# [1] = Tolerability (body weight loss, deaths) in MC-38 tumor-bearing cohorts; type: in vivo; details: for Deaths (any cause) / Maximum % Body Weight Loss: MC-38 tumor-bearing mice
# Procedure: As monotherapy, anti-PD-1 was administered twice weekly (BIW) for 2 consecutive weeks by intraperitoneal (IP) injection at 200 μg/mouse (Days 10, 13, 17, and 20).
# Animals were monitored for tumor growth and body weight 2-3 times per week based on outgrowth kinetics. Tumor diameter was measured with digital calipers, and the tumor volume in mm^3 was calculated by the formula: Volume=((width)^2×length)/2. Animals were removed from study if found moribund or if tumor volume exceeded 1500 mm^3.
# Any animals remaining with no palpable tumors were scored as cures.
# Survival was defined as morbidity, mortality or tumor size exceeding 1500 mm^3.
# [2] = Tolerability (body weight loss, deaths) in tumor-naive cohorts; type: in vivo; details: tumor-naive mice
# Procedure: Anti-PD-1 was administered twice weekly (BIW) for 2 consecutive weeks by intraperitoneal (IP) injection at 200 μg/mouse. […] Concomitantly, a set of satellite cohorts comprising tumor-naïve mice was treated with the same schedules and doses as indicated above. […]
# [3] = test system: C57BL/6 mice; experiment: Ocular histopathology (retina) in mice at terminal (Day 38) and recovery (Day 66) necropsy; type: in vivo; details: for animals affected by swelling of rod and cone processes (incidence and grade): terminal necropsy
# Procedure: Eyes were harvested for histopathology assessment from the tumor-naïve groups as the terminal necropsy cohort on Day 38, the last day the 28-day dosing period. Since not all terminal necropsy groups were dosed for the entirety of the 28-day dosing period, some groups effectively experienced a 1-3 week recovery period. Eyes were harvested for histopathology assessment from the tumor-bearing groups as the recovery necropsy cohort on Day 66, the last day of the 28-day recovery period. Since not all recovery necropsy groups were dosed for the entirety of the 28-day dosing period, some of these groups effectively experienced an extended recovery period beyond the 28-day recovery period of an additional 1-3 weeks. […] This finding was only visualized under epifluorescent illumination and was characterized by scattered individual processes that were increased in diameter up to five times the surrounding processes, with increased autofluorescence. […] It remained unclear whether these findings were adverse, as no degenerative changes were observed. If the material affected vision, it would be considered adverse; however, as this study was not designed to test for alterations in vision, adversity could not be determined.
# Terminal necropsy from non-tumor-bearing cohorts occurred at 28 days from the start of dosing, and eyes from 4-5 animals in each group were harvested for histopathology assessment. Since not all terminal necropsy groups were dosed for the entirety of the 28-day dosing period, some groups effectively experienced a 1-3 week recovery period. Recovery sacrifice from tumor-bearing cohorts occurred at 28 days after the 28-day dosing period, and eyes from 5 animals in each group were harvested for histopathology assessment. Since not all recovery necropsy groups were dosed for the entirety of the 28-day dosing period, some groups effectively experienced an extended recovery period beyond the 28-day recovery period of 1-3 weeks. Briefly, animals were euthanized by CO2 inhalation and eyes were harvested with forceps and placed in 1.5 mL modified Davidson's Fixative (Electron Microscopy Science, Cat. No. 64133-50, lot no. 190621-08) for up to 24 hours at room temperature. Tissues were then transferred to 1.5 ml 10% neutral buffered formalin (Thermo Scientific, cat. no. 9400-5, lot no. 435456) at room temperature. Fixed tissues were submitted Vet Path Services, Inc. (Mason, Ohio) for histological processing and microscopic evaluation.
# Provantis™ pathology software v 10.1.0.1 was utilized for data capture and table generation. Histopathology grades were assigned as grade 1 (minimal), grade 2 (mild), grade 3 (moderate), grade 4 (marked), or grade 5 (severe) based on an increasing extent of change, unless otherwise specified. H&E stained slides were evaluated with standard light microscopy and epifluorescence (450-490 nm excitation).
# [4] = biological target: CYP3A4 (Homo sapiens, UniProt P08684); experiment: In vitro metabolism by CYP3A4; type: in vitro ADME
# Sequence of CYP3A4 (P08684 whole entry): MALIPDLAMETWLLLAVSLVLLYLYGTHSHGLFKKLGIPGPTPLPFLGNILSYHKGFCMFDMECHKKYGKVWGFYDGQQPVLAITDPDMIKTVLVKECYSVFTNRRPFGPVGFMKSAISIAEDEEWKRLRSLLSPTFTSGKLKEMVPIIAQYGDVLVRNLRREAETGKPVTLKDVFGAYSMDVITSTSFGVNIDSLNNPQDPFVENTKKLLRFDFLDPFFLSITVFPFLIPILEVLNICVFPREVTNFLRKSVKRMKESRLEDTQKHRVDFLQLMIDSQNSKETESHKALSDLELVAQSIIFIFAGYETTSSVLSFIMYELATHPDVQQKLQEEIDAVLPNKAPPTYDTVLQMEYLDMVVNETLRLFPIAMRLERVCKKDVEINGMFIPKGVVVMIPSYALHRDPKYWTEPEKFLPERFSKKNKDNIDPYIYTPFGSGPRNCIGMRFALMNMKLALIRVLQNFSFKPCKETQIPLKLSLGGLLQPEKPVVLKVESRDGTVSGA
# [5] = biological target: CYP2D6 (Homo sapiens, UniProt P10635); experiment: In vitro metabolism by CYP2D6; type: in vitro ADME
# Sequence of CYP2D6 (P10635 whole entry): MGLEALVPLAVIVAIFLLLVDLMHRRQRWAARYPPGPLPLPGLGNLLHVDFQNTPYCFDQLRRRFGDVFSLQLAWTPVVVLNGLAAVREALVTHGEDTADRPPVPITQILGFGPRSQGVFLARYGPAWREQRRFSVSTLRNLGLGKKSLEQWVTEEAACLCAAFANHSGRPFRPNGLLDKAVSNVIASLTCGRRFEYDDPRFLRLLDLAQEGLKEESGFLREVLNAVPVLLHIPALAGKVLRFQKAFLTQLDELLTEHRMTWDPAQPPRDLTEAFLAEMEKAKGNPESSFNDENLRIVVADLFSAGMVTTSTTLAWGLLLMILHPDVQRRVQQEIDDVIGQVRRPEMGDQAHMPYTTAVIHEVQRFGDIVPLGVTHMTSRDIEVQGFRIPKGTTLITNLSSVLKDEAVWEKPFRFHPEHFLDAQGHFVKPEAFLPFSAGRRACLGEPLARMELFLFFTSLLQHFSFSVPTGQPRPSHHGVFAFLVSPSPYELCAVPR
# [6] = biological target: P-gp (Homo sapiens, UniProt P08183); experiment: P-gp substrate assessment in vitro; type: in vitro ADME
# Sequence of P-gp (P08183 whole entry): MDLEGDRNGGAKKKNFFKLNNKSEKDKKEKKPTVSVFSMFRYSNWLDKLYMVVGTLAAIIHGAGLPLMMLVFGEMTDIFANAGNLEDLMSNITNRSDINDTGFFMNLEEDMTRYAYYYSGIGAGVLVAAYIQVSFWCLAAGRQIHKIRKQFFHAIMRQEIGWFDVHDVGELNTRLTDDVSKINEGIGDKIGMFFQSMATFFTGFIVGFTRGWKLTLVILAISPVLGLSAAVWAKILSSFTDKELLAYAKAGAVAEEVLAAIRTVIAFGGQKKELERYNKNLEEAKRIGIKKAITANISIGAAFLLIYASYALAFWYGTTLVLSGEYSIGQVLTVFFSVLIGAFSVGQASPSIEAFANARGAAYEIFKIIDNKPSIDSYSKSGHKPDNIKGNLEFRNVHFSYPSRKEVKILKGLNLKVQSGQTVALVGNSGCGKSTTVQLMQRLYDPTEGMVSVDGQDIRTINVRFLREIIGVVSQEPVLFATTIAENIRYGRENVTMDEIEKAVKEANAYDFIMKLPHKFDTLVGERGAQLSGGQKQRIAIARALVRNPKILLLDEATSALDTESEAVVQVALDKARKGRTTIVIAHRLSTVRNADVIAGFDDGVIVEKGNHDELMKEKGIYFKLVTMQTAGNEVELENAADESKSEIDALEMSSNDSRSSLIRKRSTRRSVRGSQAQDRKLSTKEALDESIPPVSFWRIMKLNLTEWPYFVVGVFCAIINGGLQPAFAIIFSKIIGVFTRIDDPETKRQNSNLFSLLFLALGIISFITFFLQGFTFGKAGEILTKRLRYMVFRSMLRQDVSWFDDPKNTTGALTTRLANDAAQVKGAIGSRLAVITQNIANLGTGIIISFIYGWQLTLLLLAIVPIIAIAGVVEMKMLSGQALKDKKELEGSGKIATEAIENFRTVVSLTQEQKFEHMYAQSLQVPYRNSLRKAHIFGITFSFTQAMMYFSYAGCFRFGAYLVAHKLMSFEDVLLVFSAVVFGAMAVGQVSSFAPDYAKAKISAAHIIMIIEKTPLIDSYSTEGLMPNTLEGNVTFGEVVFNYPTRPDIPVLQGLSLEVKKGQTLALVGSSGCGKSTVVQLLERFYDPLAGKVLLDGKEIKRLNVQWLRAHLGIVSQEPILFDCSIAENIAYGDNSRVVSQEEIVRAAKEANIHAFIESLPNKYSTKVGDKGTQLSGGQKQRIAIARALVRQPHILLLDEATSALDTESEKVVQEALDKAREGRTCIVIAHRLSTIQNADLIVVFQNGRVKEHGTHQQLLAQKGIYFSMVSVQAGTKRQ
# [7] = in vivo; details: female, rat
# [8] = Compound 1 50 mg/kg PO BID Days 10-16 (7 days) in combination with anti-PD-1 200 μg IP BIW (Days 10, 13, 17, 20)
# [9] = Compound 1 50 mg/kg PO BID Days 10-16 and Days 24-30 (interval schedule) in combination with anti-PD-1 200 μg IP BIW (Days 10, 13, 17, 20)
# [10] = Compound 1 50 mg/kg PO BID Days 10-23 (14 days) in combination with anti-PD-1 200 μg IP BIW (Days 10, 13, 17, 20)
# [11] = Compound 1 50 mg/kg PO BID Days 10-30 (21 days) in combination with anti-PD-1 200 μg IP BIW (Days 10, 13, 17, 20)
# [12] = Compound 1 50 mg/kg PO BID Days 10-37 (28 days) in combination with anti-PD-1 200 μg IP BIW (Days 10, 13, 17, 20)
# [13] = Compound 1 monotherapy, 50 mg/kg PO BID Days 10-37 (28 days)
# [14] = Compound 1 50 mg/kg PO BID Days 10-16/24-30 in combination with anti-PD-1 200 μg IP BIW
# [15] = Compound 1 50 mg/kg PO BID Days 10-16 in combination with anti-PD-1 200 μg IP BIW
# [16] = Compound 1 50 mg/kg PO BID Days 10-23 in combination with anti-PD-1 200 μg IP BIW
# [17] = Compound 1 50 mg/kg PO BID Days 10-30 in combination with anti-PD-1 200 μg IP BIW
# [18] = Compound 1 50 mg/kg PO BID Days 10-37 in combination with anti-PD-1 200 μg IP BIW
# [19] = Compound 1 monotherapy, 50 mg/kg PO BID Days 10-37
smiles,measurement,setting,value
"CC(C)n1cc(C(=O)Nc2ccc(Oc3ccnc4[nH]nc(N[C@H](C)CO)c34)c(F)c2)c(=O)n(-c2ccc(F)cc2)c1=O [Compound 1, (R)—N-(3-fluoro-4-((3-((1-hydroxypropan-2-yl)amino)-1H-pyrazolo[3,4-b]pyridin-4-yl)oxy)phenyl)-3-(4-fluorophenyl)-1-isopropyl-2,4-dioxo-1,2,3,4-tetrahydropyrimidine-5-carboxamide]",tolerability of doses and schedules,"[1]; MC-38 study, Compound 1 50 mg/kg BID 7-28 days, monotherapy or with anti-PD-1 200 μg BIW, 50 mg/kg",tolerated as monotherapy and in combination with anti-PD-1; also recorded: tolerated at these doses and schedules
same,Deaths (any cause),[1]; [8],0/8
same,Maximum % Body Weight Loss,[1]; [8],0.00%
same,Deaths (any cause),[1]; [9],0/8
same,Maximum % Body Weight Loss,[1]; [9],0.23%
same,Deaths (any cause),[1]; [10],0/8
same,Maximum % Body Weight Loss,[1]; [10],0.00%
same,Deaths (any cause),[1]; [11],0/8
same,Maximum % Body Weight Loss,[1]; [11],2.98%
same,Deaths (any cause),[1]; [12],1/8
same,Maximum % Body Weight Loss,[1]; [12],0.00%
same,Deaths (any cause),[1]; [13],2/8
same,Maximum % Body Weight Loss,[1]; [13],5.17%
same,Deaths (any cause),[2]; [14],0/5
same,Maximum % Body Weight Loss,[2]; [14],0.00%
same,Deaths (any cause),[2]; [15],0/5
same,Maximum % Body Weight Loss,[2]; [15],0.00%
same,Deaths (any cause),[2]; [16],1/5
same,Maximum % Body Weight Loss,[2]; [16],0.00%
same,Deaths (any cause),[2]; [17],1/5
same,Maximum % Body Weight Loss,[2]; [17],0.00%
same,Deaths (any cause),[2]; [18],0/5
same,Maximum % Body Weight Loss,[2]; [18],0.00%
same,Deaths (any cause),[2]; [19],0/5
same,Maximum % Body Weight Loss,[2]; [19],0.00%
same,abnormal ocular observation at recovery sacrifice (unlikely to be related to the test article),"[3]; Day 66, Compound 1 for four weeks in combination with anti-PD-1",unilateral focal atrophy of the outer nuclear layer in Animal 4
same,recovery period within which Compound 1-related microscopic retinal changes may be resolved,"[3]; mice, histopathology assessment of the retinas",1-4 week
same,animals affected by swelling of rod and cone processes (incidence and grade),[3]; Compound 1 for four weeks as monotherapy,three animals were minimally affected and two animals were mildly affected
same,animals affected by swelling of rod and cone processes (incidence and grade),[3]; Compound 1 for four weeks in combination with anti-PD-1,four of five animals were minimally affected
same,test article-related ocular changes at recovery sacrifice,"[3]; tumor-bearing mice, Day 66, 28 days after the 28-day dosing period",no definitively Compound 1-related changes were observed; also recorded: no definitively test article-related changes were observed
same,test article-related microscopic changes in retina at terminal necropsy,"[3]; tumor-naive mice, Day 38, Compound 1 50 mg/kg BID for 28 days (four weeks), as monotherapy or in combination with anti-PD-1, seen only under epifluorescent illumination, 50 mg/kg",multifocal swelling of the rod and cone processes in the retina; also recorded: multifocal swelling of the Rod and Cone processes in retina
same,metabolizing enzyme in vitro,[4],primarily metabolized by CYP3A4 and CYP2D6
same,metabolizing enzyme in vitro,[5],primarily metabolized by CYP3A4 and CYP2D6
same,P-gp substrate status,[6],substrate of P-gp and BCRP
same,NOAEL at 7 days,[7],200 mg/kg
